Data from ChEMBL document CHEMBL4673240, “Euphnerins A and B, Diterpenoids with a 5/6/6 Rearranged Spirocyclic Carbon Skeleton from the Stems of Euphorbia neriifolia” (J Nat Prod, 2020).

Test: Inhibition of LPS-induced NO production in mouse BV-2 cells
Type: functional, cell-based

| IC50 [µM] | SMILES |
| --- | --- |
| 2 | CSC(=N)N |
| 22.4 | C=C[C@@]1(C)CC[C@]2(C)C(=O)[C@@]3(CC[C@H]2C1)[C@H](O)C[C@@H](O)C3(C)C |
| > 30 | C=C[C@@]1(C)CC[C@]2(C)C(=O)[C@@]3(CC[C@H]2C1)[C@H](O)CCC3(C)C |
